For one assay, the target named is Substance-P receptor (Homo sapiens, UniProt P25103). The experiment in a line: Binding affinity towards NK1 receptor.
A further assay has as its target T1, Substance-K receptor (Homo sapiens, UniProt P21452).
T1 sequence (P21452 whole entry): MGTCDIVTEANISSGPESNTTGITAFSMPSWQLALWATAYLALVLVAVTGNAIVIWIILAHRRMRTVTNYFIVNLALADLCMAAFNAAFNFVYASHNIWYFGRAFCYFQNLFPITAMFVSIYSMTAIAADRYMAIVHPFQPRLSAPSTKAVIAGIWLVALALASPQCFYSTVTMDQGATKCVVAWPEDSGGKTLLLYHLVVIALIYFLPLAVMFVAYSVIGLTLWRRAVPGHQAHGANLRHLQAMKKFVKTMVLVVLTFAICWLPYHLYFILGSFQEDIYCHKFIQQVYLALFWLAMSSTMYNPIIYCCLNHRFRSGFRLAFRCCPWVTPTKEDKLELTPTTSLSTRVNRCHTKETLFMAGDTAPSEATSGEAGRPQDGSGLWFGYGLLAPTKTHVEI
The assay can be described thus: Binding affinity towards NK2 receptor.

Chain of Substance-P receptor (P25103 whole entry): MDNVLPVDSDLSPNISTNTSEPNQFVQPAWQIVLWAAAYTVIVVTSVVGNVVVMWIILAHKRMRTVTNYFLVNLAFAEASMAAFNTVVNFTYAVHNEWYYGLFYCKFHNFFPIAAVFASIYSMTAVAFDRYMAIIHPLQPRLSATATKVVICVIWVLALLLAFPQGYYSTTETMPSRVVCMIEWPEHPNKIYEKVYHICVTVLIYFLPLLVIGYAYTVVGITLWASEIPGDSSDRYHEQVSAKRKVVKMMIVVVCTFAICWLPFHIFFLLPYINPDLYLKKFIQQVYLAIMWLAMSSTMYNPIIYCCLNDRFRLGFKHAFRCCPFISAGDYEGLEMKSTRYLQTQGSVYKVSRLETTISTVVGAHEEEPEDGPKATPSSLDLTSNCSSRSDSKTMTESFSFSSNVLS

Usually Ki stands for the equilibrium dissociation constant of an inhibitor or competing ligand from its target. Read a low Ki as a stronger hold on the target. With `CO/N=C(\COCc1cc(C(F)(F)F)cc(C(F)(F)F)c1)C(CCN1CCC(N2CCC(OC(=O)NC(C)C)C2)CC1)c1ccc(Cl)c(Cl)c1` (stereo not drawn), the Ki at Substance-P receptor worked out at 19 nM; on Substance-K receptor it was 67 nM.
On the same counts, the results for `CO/N=C(\COCc1cc(C(F)(F)F)cc(C(F)(F)F)c1)C(CCN1CCC(CN2CCCC(O)C2)CC1)c1ccc(Cl)c(Cl)c1` (stereo not drawn) are 38 nM and 47 nM.
Regarding `CO/N=C(\COCc1cc(C(F)(F)F)cc(C(F)(F)F)c1)C(CCN1CCC(N2CCCC2)CC1)c1ccc(Cl)c(Cl)c1` (stereo not drawn), the figures for the Ki at Substance-P receptor and at Substance-K receptor were 36 nM and 195 nM, respectively.
As for `CO/N=C(\COCc1cc(C(F)(F)F)cc(C(F)(F)F)c1)C(CCN1CCC(CN2CCCCC2)CC1)c1ccc(Cl)c(Cl)c1` (stereo not drawn), the Ki on Substance-P receptor is 36 nM; on Substance-K receptor, 26 nM.
Turning to `CO/N=C(\COCc1cc(C(F)(F)F)cc(C(F)(F)F)c1)C(CCN1CCC(N2CCCC2=O)CC1)c1ccc(Cl)c(Cl)c1` (stereo not drawn), the results for the Ki at Substance-P receptor and at Substance-K receptor were 9 nM and 7 nM, respectively.
The corresponding values for `CCOC(=O)C1CCCN(C2CCN(CCC(/C(COCc3cc(C(F)(F)F)cc(C(F)(F)F)c3)=N/OC)c3ccc(Cl)c(Cl)c3)CC2)C1` (stereo not drawn) are 117 nM and 20 nM.
The corresponding values for `CO/N=C(\COCc1cc(C(F)(F)F)cc(C(F)(F)F)c1)C(CCN1CCC(CN2CCCC(C(N)=O)C2)CC1)c1ccc(Cl)c(Cl)c1` (stereo not drawn) are 25 nM and 27 nM.
On the same counts, the results for `CO/N=C(\COCc1cc(C(F)(F)F)cc(C(F)(F)F)c1)C(CCN1CCC(N2CCCC(C(N)=O)C2)CC1)c1ccc(Cl)c(Cl)c1` (stereo not drawn) are 13 nM and 11 nM.
Turning to `CO/N=C(\COCc1cc(C(F)(F)F)cc(C(F)(F)F)c1)C(CCN1CCC(NC(=O)C2CCCCC2)CC1)c1ccc(Cl)c(Cl)c1` (stereo not drawn), the Ki came out at 44 nM at Substance-P receptor and 146 nM at Substance-K receptor.
The compound `CO/N=C(\COCc1cc(C(F)(F)F)cc(C(F)(F)F)c1)C(CCN1CCC(C(N)=O)CC1)c1ccc(Cl)c(Cl)c1` (stereo not drawn) registered a Ki at Substance-K receptor of 67 nM.
Turning to `CO/N=C(\COCc1cc(C(F)(F)F)cc(C(F)(F)F)c1)C(CCN1CCC(CN2CCCC(Cc3ccccc3)C2=O)CC1)c1ccc(Cl)c(Cl)c1` (stereo not drawn), the Ki came to 69 nM at Substance-P receptor and 91 nM on Substance-K receptor.
The corresponding values for `CO/N=C(\COCc1cc(C(F)(F)F)cc(C(F)(F)F)c1)C(CCN1CCC(CN2CCCC(CC3CC3)C2=O)CC1)c1ccc(Cl)c(Cl)c1` (stereo not drawn) are 14 nM and 26 nM.
On the same counts, the results for `CO/N=C(\COCc1cc(C(F)(F)F)cc(C(F)(F)F)c1)C(CCN1CCC(CN2CCCC(CO)C2)CC1)c1ccc(Cl)c(Cl)c1` (stereo not drawn) are 50 nM and 39 nM.
The corresponding values for `C=CCC1CCCN(CC2CCN(CCC(/C(COCc3cc(C(F)(F)F)cc(C(F)(F)F)c3)=N/OC)c3ccc(Cl)c(Cl)c3)CC2)C1=O` (stereo not drawn) are 13 nM and 58 nM.
`CO/N=C(\COCc1cc(C(F)(F)F)cc(C(F)(F)F)c1)C(CCN1CCC(N2CCCCC2CO)CC1)c1ccc(Cl)c(Cl)c1` (stereo not drawn): the Ki at Substance-P receptor came out at 14 nM; on Substance-K receptor, 15 nM.
On the same counts, the results for `CO/N=C(\COCc1cc(C(F)(F)F)cc(C(F)(F)F)c1)C(CCN1CCC(CN2CCCCC2CO)CC1)c1ccc(Cl)c(Cl)c1` (stereo not drawn) are 20 nM and 53 nM.
For `CO/N=C(\COCc1cc(C(F)(F)F)cc(C(F)(F)F)c1)C(CCN1CCC(CNC2(CO)CCCC2)CC1)c1ccc(Cl)c(Cl)c1` (stereo not drawn), the values for the Ki at Substance-P receptor and on Substance-K receptor were 24 nM and 16 nM, respectively.
On the same counts, the results for `CO/N=C(\COCc1cc(C(F)(F)F)cc(C(F)(F)F)c1)C(CCN1CCC(CN2CCCC(CC(O)CO)C2=O)CC1)c1ccc(Cl)c(Cl)c1` (stereo not drawn) are 7 nM and 16 nM.
Consider `CCOC(=O)C1CCCN(CC2CCN(CCC(/C(COCc3cc(C(F)(F)F)cc(C(F)(F)F)c3)=N/OC)c3ccc(Cl)c(Cl)c3)CC2)C1` (stereo not drawn), for which the Ki on Substance-P receptor worked out at 16 nM; on Substance-K receptor, 28 nM.
With `CO/N=C(\COCc1cc(C(F)(F)F)cc(C(F)(F)F)c1)C(CCN1CCC(N2CCCCC2=O)CC1)c1ccc(Cl)c(Cl)c1` (stereo not drawn), the Ki on Substance-P receptor was 18 nM; at Substance-K receptor, 4 nM.
Take `CO/N=C(\COCc1cc(C(F)(F)F)cc(C(F)(F)F)c1)C(CCN1CCC(N2CCC(O)C2)CC1)c1ccc(Cl)c(Cl)c1` (stereo not drawn): the Ki at Substance-P receptor came to 4 nM; on Substance-K receptor, 16 nM.
The corresponding values for `CO/N=C(\COCc1cc(C(F)(F)F)cc(C(F)(F)F)c1)C(CCN1CCC(CN2CCCC2=O)CC1)c1ccc(Cl)c(Cl)c1` (stereo not drawn) are 8 nM and 21 nM.
On the same counts, the results for `CO/N=C(\COCc1cc(C(F)(F)F)cc(C(F)(F)F)c1)C(CCN1CCC(CN2CCOCC2)CC1)c1ccc(Cl)c(Cl)c1` (stereo not drawn) are 14 nM and 39 nM.
On the same counts, the results for `CO/N=C(\COCc1cc(C(F)(F)F)cc(C(F)(F)F)c1)C(CCN1CCC(CN2CCCCC2=O)CC1)c1ccc(Cl)c(Cl)c1` (stereo not drawn) are 10 nM and 12 nM.
With `CO/N=C(\COCc1cc(C(F)(F)F)cc(C(F)(F)F)c1)C(CCN1CCC(N2CCC[C@H]2C(N)=O)CC1)c1ccc(Cl)c(Cl)c1` (stereo partly drawn), the figures for the Ki on Substance-P receptor and at Substance-K receptor were 13 nM and 11 nM, respectively.
The corresponding values for `CO/N=C(\COCc1cc(C(F)(F)F)cc(C(F)(F)F)c1)C(CCN1CCC(N2CCCC2=S)CC1)c1ccc(Cl)c(Cl)c1` (stereo not drawn) are 16 nM and 23 nM.
On the same counts, the results for `CO/N=C(\COCc1cc(C(F)(F)F)cc(C(F)(F)F)c1)C(CCN1CCC(CNC(=O)c2ccccc2)CC1)c1ccc(Cl)c(Cl)c1` (stereo not drawn) are 112 nM and 137 nM.
On the same counts, the results for `CO/N=C(\COCc1cc(C(F)(F)F)cc(C(F)(F)F)c1)C(CCN1CCC(CN2CCCC(OC(=O)NC(C)C)C2)CC1)c1ccc(Cl)c(Cl)c1` (stereo not drawn) are 17 nM and 33 nM.
With `CO/N=C(\COCc1cc(C(F)(F)F)cc(C(F)(F)F)c1)C(CCN1CCC(NC(=O)c2ccccc2)CC1)c1ccc(Cl)c(Cl)c1` (stereo not drawn), the values for the inhibition constant Ki on Substance-P receptor and on Substance-K receptor were 18 nM and 144 nM, respectively.
The corresponding values for `CO/N=C(\COCc1cc(C(F)(F)F)cc(C(F)(F)F)c1)C(CCN1CCC(CN2CCCCC2=S)CC1)c1ccc(Cl)c(Cl)c1` (stereo not drawn) are 20 nM and 23 nM.
On the same counts, the results for `CO/N=C(\COCc1cc(C(F)(F)F)cc(C(F)(F)F)c1)C(CCN1CCC(C(=O)N2CCCC2)CC1)c1ccc(Cl)c(Cl)c1` (stereo not drawn) are 6 nM and 59 nM.
Take `CO/N=C(\COCc1cc(C(F)(F)F)cc(C(F)(F)F)c1)C(CCN1CCC(CN2CCCCC2CCO)CC1)c1ccc(Cl)c(Cl)c1` (stereo not drawn): the values for the Ki on Substance-P receptor and on Substance-K receptor were 13 nM and 14 nM, respectively.

The values are drawn from ChEMBL document CHEMBL1134190, “Synthesis of substituted 4(Z)-(methoxyimino)pentyl-1-piperidines as dual NK1/NK2 inhibitors” (Bioorg Med Chem Lett, 2001).
